According to patent publication US10596115B2, “Pharmaceutical composition for the treatment of diminution of bone tissue” (Council of Scientific & Industrial Research, priority 2013, dated 2020):
Where a SMILES comes first, the peptide text is derived from it. The star is where a group is joined. Cbz = O=C(OCc1ccccc1)*; OtBu = CC(C)(C)O*

Key:
[1] = system: Mice Calvarial osteoblasts (MCOs); test: Alkaline phosphatase (ALP) assay in mice calvarial osteoblasts; assay type: cell-based; conditions: for ALP production / ALP activity compared with control: osteoblast differentiation medium, 1 pM to 1 μM; for dose most effective in stimulating ALP activity: dose range 1 pM to 1 μM
Method: For each experiment, 1 to 2 day old […] were used to harvest 20 to 35 calvaria at room temperature (25° C.). Briefly, individual calvaria were surgically isolated from the skull, the sutures were segregated, and the adherent tissue material was cleaned by gentle scrapping. As described previously, the pooled calvarias were kept for repeated digestion (15 minutes/digestion) with 0.05% trypsin and 0.1% collagenase P to release the cells. First digestion was discarded and cells were collected from the next four digestions. These cells were cultured in a modified essential medium (a-MEM) containing 10% fetal calf serum (FCS) and 1% penicillin/streptomycin (complete growth medium). Cultures of MCOs were allowed to reach 80% confluence for the experiments.
For the measurement of ALP activity, MCOs at approximately 80% confluence were trypsinized, and 2×10^3 cells/well were seeded onto 96-well plates. […] At the end of incubation period, total ALP activity was measured using p-nitrophenylphosphate (PNPP) as substrate, and absorbance was read at 405 nm.

[2] = system: Mice Calvarial osteoblasts (MCOs); test: Quantitative real time PCR of osteogenic genes in MCOs; assay type: cell-based; conditions: 10 nM
Method: Cells were homogenized using 1 ml of TRIzol reagent (Invitrogen, Carlsbad, Calif., USA), and total RNA was extracted according to the manufacturer's protocol. cDNA was synthesized using RevertAid™ First Strand cDNA synthesis kit (#K1621 Fermentas, Canada) from 1 μg of total RNA. Quantitative real time PCR amplifications were performed in The LightCycler® 480 Real-Time PCR System (Roche Diagnostics, USA) using LightCycler SYBR Green (Roche Diagnostics, USA) according to the manufacturer's instruction. The sequences of primer sets for Smurf1, Smurf2, RunX2, BMP-2, alkaline phosphatase (ALP), osteocalcin (OCN), Collagen I (Coll) and GAPDH mRNAs, target sites on mRNAs and product sizes by PCR are shown in FIG. 6. The quantity of each sample was normalized using the CT (threshold cycle) value obtained for the GAPDH mRNA amplifications.

[3] = system: Smads; conditions: Ito y et al, 2011; cited from earlier work
[4] = target: 20 S proteasome (Rattus norvegicus, UniProt P28075); test: 20 S proteasome activity assay in calvarial osteoblast cells; conditions: for inhibition of 20 S proteasomal activity: calvarial osteoblast cells
[5] = system: Mice Calvarial osteoblasts (MCOs); test: Mineralization assay (Alizarin red-S); assay type: cell-based; conditions: 10 nM, 21 days, vs control group
Method: Mineralization assay was carried out to assess the mineralizing ability and thus bone formation of osteoblasts cells. […] At the end of the experiment, the cells were washed with PBS and fixed with paraformaldehyde (4%) in PBS for 15 minutes. Alizarin red-S stain was used for staining mineralized nodules, followed by extraction of the stain using 10% acetic acid and 10% ammonium hydroxide for colorimetric quantification at 405 nm.

[6] = system: Mice primary osteoblast cells; test: Cell proliferation assay (direct cell count and BrdU); assay type: cell-based; conditions: 24 h
Method: Mice primary osteoblast cells were plated at a density of 2.5×10^5 cells/ml/well in 12 well plates at 37° C. […] The cells were trypsinized and viable cells were counted with a hemocytometer using trypan blue dye exclusion. Cell counts were performed in duplicate and repeated in three cultures. […] Cell proliferation was determined using BrdU ELISA (from Calbiochem, Darmstadt, Germany) using manufacturer's instructions. For the last 3h of the 24 h stimulation, the, cells were trypsinized and 2000 cells/well were seeded in a-MEM supplemented with 10% fetal bovine serum, and the cells were pulsed with BrdU. Absorbance at dual wavelength of 450-540 nm was measured with a microplate reader.

[7] = system: Mice calverial osteoblast; test: Apoptosis assay (Annexin V/PI, FACS) in serum deprived MCOs; assay type: cell-based; conditions: 10 nM, 24 h
Method: Annexin V/PI staining for fluorescence-activated cell sorting (FACS) analysis was carried out using Calbiochem Annexin V-FITC Apoptosis Detection Kit (Calbiochem, USA) according to manufacturer's instructions.

[8] = system: Mouse bone marrow cells; test: Osteoclast culture, real-time expression of TRAP and RANK; assay type: cell-based; conditions: bone marrow cultures with MCSF and RANKL, 6 days, vs control vehicle
Method: In vitro osteoclastogenesis was performed using standard protocol. Mouse bone marrow cells were flushed from femur using alpha-MEM. Cells were seeded in flask overnight in Osteoclast medium (alpha MEM, 10% FCS, antibiotic, EBSS, 10 ng/ml MCSF). […] The medium was replaced after every 48 hours. After 6 days of culture, the cells were washed with PBS and then fixed in 4% paraformaldehyde or used for RNA extraction using TRIZOL for analysis of TRAP, RANK mRNA levels by real-time PCR. Fixed cells were followed by TRAP staining using the standardized protocol.

[9] = system: drill-hole injury in femur of Sham and OVx Balb/c mice; test: Fracture healing drill-hole study; assay type: in vivo
Excerpt: Sixty adult Balb/c mice (18-20 g each) were taken and divided into six groups of […] for the study. Each group included 12 animals per group. […] Mice were left for 8 weeks for the OVx mice to develop osteopenia. After 8 weeks, drill-hole injury was created in both sham and OVx groups. In mid femur region the front skin was incised straight and longitudinally 1 cm in length under anesthetic condition. After splitting the muscle, periosteum was stripped to expose the femoral bone surface. A drill-hole injury was made, 1 cm above the knee joint by inserting a drill bit with a diameter of 0.1 mm in the anterior portion of the diaphysis of the bilateral femurs. […] Each animal received intraperitoneal administration of fluorochrome calcein (20 mg·kg^−1) 24 h before autopsy. After 21 days of treatment as described above, all mice were euthanized and autopsied to collect their femurs for the measurement of bone micro architectural parameters at the drill hole site. Bones were embedded in acrylic material and 50 μm sections were made using an Isomet BoneCutter (Buehler, Lake Bluff, Ill. USA) and photographs were taken under confocal microscope LSM 510 Meta, Carl Zeiss, USA) aided with appropriate filters. The intensity of calcein binding, which is an indicator of the amount of new mineral deposition, was calculated using Carl Zeiss A M 4.2 image-analysis software.

[10] = system: Ovariectomized (OVx) Mice; test: In vivo efficacy of WFA on ovariectomized (OVx) mice, μCT; parameters: species or system Balb/c mice; conditions: doses 1, 5 and 10
Method: The intraperitoneal dose for iPTH (40 μg·kg^-1 for 3 days/week) used in this study as known anabolic agent. […] For dynamic histomorphometry measurements each animal was administered intraperitoneally with fluorochromes tetracycline (20 mg·kg^-1) on day 30 […] and calcein (20 mg·kg^-1) on day 60 (8 weeks) after the commencement of various treatments. After 8 weeks of treatment, all mice were euthanized and autopsied to collect bones (i.e., tibias and femurs) for measurement of bone parameter. […] BMCs were cultured in bone marrow differentiation medium to induce mineralization for 18 days. Mineralization was quantified as described. Alizarin red S stain was used for staining mineralized nodules, followed by extraction of the stain for quantification. […] The plasma samples were analyzed by HPLC according to reported method with slight modification. Sky Scan 1076 μCT scanner (Aartselaar, Belgium) was used to carryout μCT scanning of excised bones as described before. The bone samples were scanned at a resolution of 9 μm and reconstruction was done using the Sky Scan Nrecon software. The X-ray source was set at 50 kV and […], with a pixel size of 9 μm. A hundred projections were acquired over an angul arrange of 180°. […] Trabecular thickness (Tb.Th) and structure mode index (SMI) was calculated according to the method of Hildebrand and Ruegsegger. […]

[11] = system: uterus of OVx mice; test: Estrogenicity studies (uterine weight); assay type: in vivo; conditions: all doses
Method: The uterus of each mouse was weighed and then fixed in 4% paraformaldehyde. A middle segment of each uterus was dehydrated in ascending grades of isopropanol, cleared in xylene and sections of about 5 μm thickness was prepared. Haematoxylin and eosin staining was done of 5 μm transverse sections and representative images were captured. Leica Qwin-Semiautomatic Image Analysis software (Leica Microsystems GmbH) was used to measure total uterine area, luminal area and luminal epithelial height.

[12] = system: serum osteocalcin in OVx mice; test: Bone turnover marker, serum osteocalcin EIA; assay type: in vivo; conditions: 60 days, vs OVx+vehicle
Excerpt: Rat-MID™ Osteocalcin EIA (Immunodiagnostic, UK) performed using serum from treated and vehicle groups using manufacturer's protocol as provided in the kit.

[13] = Mundy GR et al, 2005; cited from earlier work

CC1=C(C)C(=O)O[C@@H]([C@](C)(O)[C@H]2CC[C@H]3[C@@H]4[C@@H]5O[C@@H]5[C@@]5(O)CC=CC(=O)[C@]5(C)[C@H]4CC[C@]23C)C1 [WNA, Withanolide A]
ALP production / ALP activity compared with control ([1]; 48 h): significantly increased ALP production | dose most effective in stimulating ALP activity [1]: 10 nM | mRNA expression of collagen I [2]: stimulated mRNA expression of collagen I

CC(=O)N[C@@H](CSC(=O)[C@]1([C@@H](O)C(C)C)NC(=O)[C@H](C)[C@@H]1O)C(=O)O [Lactacystin, reference compound]
Activity: activity of Smads (in vitro) [3]: Increases | inhibition of 20 S proteasomal activity [4]: significantly inhibits the 20 S proteasomal activity

CC1=C(C)C(=O)O[C@@H]([C@@H](C)[C@@]2(O)CC[C@H]3[C@@H]4[C@@H]5O[C@@H]5[C@@]5(O)CC=CC(=O)[C@]5(C)[C@H]4CC[C@@]32C)C1 [WN, Withanone]
ALP production / ALP activity compared with control ([1]; 48 h): did not stimulate ALP activity significantly | dose most effective in stimulating ALP activity [1]: 10 nM | mRNA expression of collagen I [2]: stimulated mRNA expression of collagen I

CC1=C(CO)C(=O)O[C@@H]([C@@H](C)[C@H]2CC[C@H]3[C@@H]4C[C@H]5O[C@]56[C@@H](O)C=CC(=O)[C@]6(C)[C@H]4CC[C@]23C)C1 [WFA, Withaferin A]
ALP activity compared to Bortizomib ([1]; 10 nM, 48 h): ~3 fold | ALP production / ALP activity compared with control ([1]; 48 h): significantly increased ALP production | dose most effective in stimulating ALP activity [1]: 10 nM | mineralization (Alizarin-S dye extraction) [5]: significant increase in mineralization | mRNA expression of collagen I [2]: stimulated mRNA expression of collagen I | expression of osteogenic genes RunX2, OCN and Col I ([2]; normalized to GAPDH): increased expression of RunX2, OCN and Col I | concentration that maximally stimulated MCO proliferation [6]: 10 nM | osteoblast proliferation (direct cell count and BrdU incorporation) ([6]; vs control vehicle set as 100): concentration dependently stimulated osteoblast proliferation | apoptotic cells (early and late) ([7]; serum deprived (0.5% FBS) MCOs): 3% | mRNA levels of TRAP and RANK [8]: significantly reduced mRNA levels of TRAP and RANK | callus mineralization / bridging of defect ([9]; 5 mg kg-1 d-1, after day 11 post drilling): predominantly occupied mineralized callus, and the defect region was partially bridged | callus mineralization / bridging of defect ([9]; 10 mg kg-1 d-1, compared with 5 mg kg-1 d-1): more increased mineralized callus within the intra medulla region to be remodeled to completely bridge the defect | mineral deposition (intensity of calcein labeling in the drill hole) ([9]; 5 and 10 mg kg-1 d-1, 21 days, vs vehicle): increased mineral deposition | mineral deposition in OVx mice ([9]; OVx mice, 5 and 10 mg kg-1 d-1, vs OVx vehicle): increased mineral deposition in OVx mice | most effective dose (BV/TV, inter-dose comparison) [10]: 10 mg/kg/day | uterine weight [11]: uterine weight comparable to OVx group | serum osteocalcin (OCN) levels [12]: significant reduction in the levels of OCN | earliest time of inhibition of proteasomal 20 S subunit activity ([4]; 10 nM): 3 h | maximum inhibition of proteasomal 20 S subunit activity ([4]; 10 nM, at 6 h, compared with positive control): 40-50%

CC[C@H](C)[C@H](NC(=O)OCc1ccccc1)C(=O)N[C@@H](CCC(=O)OC(C)(C)C)C(=O)N[C@@H](C)C(=O)N[C@H](C=O)CC(C)C [PSI] (Cbz-IE(OtBu)AL-aldehyde)
Activity: bone volume and bone formation rate [13]: Increases bone

CC[C@H](C)[C@H](NC(=O)[C@H]([C@@H](C)CC)N(C)C(C)=O)C(=O)N[C@H](C(=O)N[C@@H](CC(C)C)C(=O)[C@@]1(C)CO1)[C@@H](C)O [Epoxomicin]
Activity: bone volume and bone formation rate [13]: Increases bone

CC(C)C[C@H](NC(=O)[C@H](Cc1ccccc1)NC(=O)c1cnccn1)B(O)O [Bzb, Bortezomib, reference compound]
mineralization (Alizarin-S dye extraction) [5]: comparable to Bzb treatment | apoptosis of serum deprived MCOs ([7]; 0.5% FBS): comparable to standard control Bortizomib (Bzb) | inhibition of 20 S proteasomal activity [4]: comparable to Bzb
